Laboratory results as given in ChEMBL document CHEMBL1122903, “Synthesis, in vitro [3H]prazosin displacement, and in vivo activity of 3-aryl-4,5,6,7-tetrahydropyrazolo[4,3-c]pyridines, a new class of antihypertensive agents” (J Med Chem, 1985).

Legend:
[1] = target: T1, Adrenergic receptor alpha-1 (Rattus norvegicus, UniProt P15823+P23944+P43140); test: Ability to displace [3H]prazosin from postsynaptic alpha-1 adrenergic receptor of rat in vitro.; format: protein assay
T1 sequence (P15823 whole entry): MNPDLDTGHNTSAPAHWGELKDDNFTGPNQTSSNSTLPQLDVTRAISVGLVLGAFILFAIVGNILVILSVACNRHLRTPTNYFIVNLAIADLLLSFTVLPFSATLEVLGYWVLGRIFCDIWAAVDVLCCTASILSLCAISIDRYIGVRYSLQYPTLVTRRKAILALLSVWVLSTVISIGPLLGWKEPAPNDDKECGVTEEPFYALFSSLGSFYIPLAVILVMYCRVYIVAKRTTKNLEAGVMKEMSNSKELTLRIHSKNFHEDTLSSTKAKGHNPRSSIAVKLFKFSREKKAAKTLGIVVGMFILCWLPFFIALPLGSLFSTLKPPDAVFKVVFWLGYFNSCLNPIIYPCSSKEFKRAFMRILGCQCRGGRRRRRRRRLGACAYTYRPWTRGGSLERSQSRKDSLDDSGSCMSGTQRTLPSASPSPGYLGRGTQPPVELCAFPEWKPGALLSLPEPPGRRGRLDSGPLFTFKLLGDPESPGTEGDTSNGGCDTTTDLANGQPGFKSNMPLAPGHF
T1 sequence (P23944 whole entry): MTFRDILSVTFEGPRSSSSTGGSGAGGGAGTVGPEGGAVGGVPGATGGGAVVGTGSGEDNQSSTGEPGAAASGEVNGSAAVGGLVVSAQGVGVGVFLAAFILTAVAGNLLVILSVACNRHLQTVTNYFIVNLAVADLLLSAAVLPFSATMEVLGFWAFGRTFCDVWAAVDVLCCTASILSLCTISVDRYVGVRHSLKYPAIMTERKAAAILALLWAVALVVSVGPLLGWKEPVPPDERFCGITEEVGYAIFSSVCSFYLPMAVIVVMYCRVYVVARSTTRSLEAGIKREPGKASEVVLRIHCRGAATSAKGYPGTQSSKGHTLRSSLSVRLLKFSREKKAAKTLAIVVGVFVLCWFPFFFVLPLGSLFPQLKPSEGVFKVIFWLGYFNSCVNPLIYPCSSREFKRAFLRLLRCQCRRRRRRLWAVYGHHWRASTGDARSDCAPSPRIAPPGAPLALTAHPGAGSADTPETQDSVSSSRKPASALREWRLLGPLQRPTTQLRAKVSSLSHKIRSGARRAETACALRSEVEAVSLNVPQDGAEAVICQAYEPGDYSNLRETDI
T1 sequence (P43140 whole entry): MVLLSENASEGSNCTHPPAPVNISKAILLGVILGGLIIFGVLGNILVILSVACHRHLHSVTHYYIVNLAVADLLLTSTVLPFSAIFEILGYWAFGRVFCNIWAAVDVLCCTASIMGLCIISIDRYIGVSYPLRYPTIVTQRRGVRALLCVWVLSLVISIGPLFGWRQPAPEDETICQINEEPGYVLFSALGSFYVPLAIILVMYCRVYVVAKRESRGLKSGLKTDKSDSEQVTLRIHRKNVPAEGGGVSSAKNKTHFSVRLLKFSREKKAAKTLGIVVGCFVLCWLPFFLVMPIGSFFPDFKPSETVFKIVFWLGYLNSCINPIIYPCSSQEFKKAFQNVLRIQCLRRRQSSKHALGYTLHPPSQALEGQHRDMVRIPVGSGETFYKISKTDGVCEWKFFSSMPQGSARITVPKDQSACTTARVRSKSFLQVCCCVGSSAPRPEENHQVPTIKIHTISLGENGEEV

Rattus norvegicus [2] = test: Antihypertensive activity on spontaneously hypertensive rats when administered orally at a dose 50 mg/kg.; format: functional; details: route oral
Rattus norvegicus [3] = test: Antihypertensive activity on spontaneously hypertensive rats, when administered intravenously at a dose 10 mg/kg; format: functional; details: route intravenous
Rattus norvegicus [4] = test: Antihypertensive activity on spontaneously hypertensive rats, when administered orally at a dose 20 mg/kg; format: functional; details: route oral

SMILES | Ki [1] [nM] | Delta p (Rattus norvegicus [2]) [%] | Delta p (Rattus norvegicus [3]) [%] | Delta p (Rattus norvegicus [4]) [%]
Fc1ccccc1-c1[nH]nc2c1CNCC2 | > 3000 | 0 | – | –
CN1CCc2c(c(-c3ccc(F)cc3)nn2CCc2ccccc2)C1 | 40.3 | 0 | – | –
CCCCCCn1nc(-c2ccc(F)cc2)c2c1CCN(C)C2.CS(=O)(=O)O | 15.2 | -16 | – | –
CCN1CCc2n[nH]c(-c3ccc(OC)cc3)c2C1 | > 3000 | 0 | – | –
CCCn1nc(-c2ccc(F)cc2)c2c1CCNC2.CS(=O)(=O)O | 24.2 | -33 | – | –
CCN1CCc2n[nH]c(-c3ccc(C)cc3)c2C1.O=C(O)CC(=O)O | 350 | 0 | – | –
CN1CCc2n[nH]c(-c3ccccc3)c2C1.O=C(O)CC(O)(CC(=O)O)C(=O)O | 1300 | 0 | – | –
Clc1cccc(-c2[nH]nc3c2CNCC3)c1 | > 3000 | 0 | – | –
CS(=O)(=O)O.Fc1ccc(-c2nn(CCCc3ccccc3)c3c2CNCC3)cc1 | 12.9 | – | -37 | –
CC(c1ccccc1)n1nc(-c2ccc(F)cc2)c2c1CCNC2.CS(=O)(=O)O (stereo unspecified) | 7.2 | – | – | -15
CCCCCn1nc(-c2ccc(F)cc2)c2c1CCNC2.CS(=O)(=O)O | 8.7 | – | – | -20
CN1CCc2c(c(-c3ccc(F)cc3)nn2-c2ccc(F)cc2)C1.CS(=O)(=O)O | 206 | – | – | 0
CC(C)n1nc(-c2ccccc2)c2c1CCNC2 | 1100 | 0 | – | –
COc1ccc(-c2[nH]nc3c2CNCC3)cc1OC | > 3000 | 0 | – | –
Fc1cccc(-c2[nH]nc3c2CNCC3)c1 | > 3000 | 0 | – | –
CCn1nc(-c2ccc(F)cc2)c2c1CCN(Cc1ccccc1)C2.CS(=O)(=O)O | 2020 | -23 | – | –
CCn1nc(-c2ccc(F)cc2)c2c1CCNC2.CS(=O)(=O)O | 32.5 | – | – | -37
Cn1nc(-c2ccc(F)cc2)c2c1CCNC2 | 1060 | 0 | – | –
CC(C)N1CCc2c(c(-c3ccc(F)cc3)nn2Cc2ccccc2)C1 | 97.6 | -20 | – | –
COc1ccc(-c2[nH]nc3c2CNCC3)cc1 | 448 | -15 | – | –
N#Cc1ccc(-c2[nH]nc3c2CNCC3)cc1 | > 3000 | 0 | – | –
CCCCn1nc(-c2ccc(F)cc2)c2c1CCNC2.CS(=O)(=O)O | 17.3 | – | -30 | –
CCN1CCc2n[nH]c(-c3ccc(F)cc3)c2C1.O=C(O)CC(=O)O | 3400 | 0 | – | –
CS(=O)(=O)O.Fc1ccc(-c2nn(CCc3ccccc3)c3c2CNCC3)cc1 | 40.3 | -15 | – | –

SMILES | Ki [1] [nM] | Delta p (Rattus norvegicus [2]) [%] | Delta p (Rattus norvegicus [3]) [%] | Delta p (Rattus norvegicus [4]) [%]
Cc1ccc(-c2[nH]nc3c2CN(C)CC3)cc1.Cc1ccc(S(=O)(=O)O)cc1 | 249 | – | – | 0
CN1CCc2n[nH]c(-c3ccc(Cl)cc3)c2C1.O=C(O)CC(O)(CC(=O)O)C(=O)O | 2000 | 0 | – | –
CN1CCc2n[nH]c(-c3ccc(F)cc3)c2C1 | 507 | – | – | 0
Cc1ccc(-c2[nH]nc3c2CNCC3)cc1.Cl.Cl | 92.2 | – | – | 0
Cl.Cl.c1ccc(-c2[nH]nc3c2CNCC3)cc1 | 490 | -18 | – | –
CCCCn1nc(-c2ccc(F)cc2)c2c1CCN(C)C2.CS(=O)(=O)O | 32.8 | -18 | – | –
CCCn1nc(-c2ccc(F)cc2)c2c1CCN(C)C2.CS(=O)(=O)O | 73.5 | -25 | – | –
Fc1ccc(-c2[nH]nc3c2CNCC3)cc1 | 69.2 | -37 | – | –
CS(=O)(=O)O.Cn1nc(-c2ccccc2)c2c1CCNC2 | 3290 | 0 | – | –
Cn1nc(-c2cccc(Cl)c2)c2c1CCNC2 | > 3000 | 0 | – | –
CC(C)n1nc(-c2ccccc2)c2c1CCN(C)C2.CS(=O)(=O)O | 2870 | 0 | – | –
Cn1nc(-c2cccc(F)c2)c2c1CCNC2 | > 3000 | 0 | – | –
CN1CCc2c(c(-c3ccc(F)cc3)nn2Cc2ccccc2)C1.CS(=O)(=O)O | 21.2 | -18 | – | –
Cc1ccc(S(=O)(=O)O)cc1.Cn1nc(-c2ccccc2F)c2c1CCNC2 | > 3000 | 0 | – | –
CCCCCCn1nc(-c2ccc(F)cc2)c2c1CCNC2.CS(=O)(=O)O | 13 | 0 | – | –
CCCCCn1nc(-c2ccc(F)cc2)c2c1CCN(C)C2.CS(=O)(=O)O | 18.3 | – | – | -21
CCCCN1CCc2c(c(-c3ccc(F)cc3)nn2Cc2ccccc2)C1.Cl | 119 | -16 | – | –
Cl.Fc1ccc(-c2nn(Cc3ccccc3)c3c2CN(C2CCCC2)CC3)cc1 | 42.4 | -18 | – | –
CCN1CCc2n[nH]c(-c3ccccc3)c2C1.Cl | 1500 | 0 | – | –
Cl.Fc1ccc(-c2nn(-c3ccc(F)cc3)c3c2CNCC3)cc1 | 161 | – | – | 0
CN1CCc2c(c(-c3ccc(F)cc3)nn2CCCc2ccccc2)C1.Cl | 20.6 | 0 | – | –
Cl.Cn1nc(-c2ccc(Cl)cc2)c2c1CCNC2 | 190 | -26 | – | –
Cl.O=[N+]([O-])c1ccc(-c2[nH]nc3c2CNCC3)cc1 | > 3000 | 0 | – | –
CC(c1ccccc1)n1nc(-c2ccc(F)cc2)c2c1CCN(C)C2.Cl (stereo unspecified) | 8.1 | – | – | -15
